This note sets out measurements from the supplement of paper PMC10307832.

Holding throughout (test): relative viability (nuclei count vs DMSO), 5 days (fraction); higher = more cells survive
Compound in assay [1]: C#Cc1cccc(Nc2ncnc3cc(OCCOC)c(OCCOC)cc23)c1 [Erlotinib] + COc1cccc2cc(-c3nc([C@H]4CC[C@H](C(=O)O)CC4)n4ncnc(N)c34)[nH]c12 [OSI-027] (partner 0.5 µM)
In a few lines:
(§1)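 Dosing by pin tool came one day after lung cancer cell lines were seeded in 1536-well plates, using either one drug or a fixed anchor-drug dose plus five library-drug doses (not always all listed) in √10 steps. After 5 days, nuclei were counted on 4× images. Relative viability is treated-well nuclei count divided by vehicle-well nuclei count, and values are medians of duplicate plates.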

Compound in assay [2]: C#Cc1cccc(Nc2ncnc3cc(OCCOC)c(OCCOC)cc23)c1 [Erlotinib] + Cc1nc(Nc2ncc(C(=O)Nc3c(C)cccc3Cl)s2)cc(N2CCN(CCO)CC2)n1 [Dasatinib] (partner 0.075 µM)
In a few lines: as §1

Compound in assay [3]: C#Cc1cccc(Nc2ncnc3cc(OCCOC)c(OCCOC)cc23)c1 [Erlotinib] + Cc1cc(Nc2cc(N3CCN(C)CC3)nc(Sc3ccc(NC(=O)C4CC4)cc3)n2)n[nH]1 [Tozasertib] (partner 0.1 µM)
In a few lines:
as §1

Compound in assay [4]: C#Cc1cccc(Nc2ncnc3cc(OCCOC)c(OCCOC)cc23)c1 [Erlotinib] + C[C@]1(O)C[C@@H](c2nc(-c3ccc4ccc(-c5ccccc5)nc4c3)c3c(N)nccn32)C1 [Linsitinib] (partner 1 µM)
In a few lines: as §1

Compound in assay [5]: O=C(Nc1c[nH]nc1-c1nc2ccc(CN3CCOCC3)cc2[nH]1)NC1CC1 [AT9283] + CC(=O)c1c(C)c2cnc(Nc3ccc(N4CCNCC4)cn3)nc2n(C2CCCC2)c1=O [Palbociclib] (partner 0.5 µM)
The essentials: as §1

As for NCI-H441, the relative viability in assay [1] (first compound 0.02 µM) came out at 0.603; in assay [1] (first compound 0.6325 µM), 0.535; in assay [1] (first compound 2 µM) it was 0.355; in assay [2] (first compound 0.02 µM), 0.651; in assay [2] (first compound 0.2 µM), 0.554; in assay [2] (first compound 0.6325 µM), 0.508. The relative viability in assay [2] (first compound 2 µM) was determined as 0.61; in assay [3] (first compound 0.02 µM), 0.631; in assay [3] (first compound 0.2 µM), 0.717; in assay [3] (first compound 0.6325 µM), 0.574; in assay [3] (first compound 2 µM) it was 0.473; in assay [4] (first compound 0.02 µM), 0.686. Besides, the relative viability in assay [4] (first compound 0.2 µM) worked out at 0.746; in assay [4] (first compound 0.6325 µM) it was 0.569; in assay [4] (first compound 2 µM) it was 0.326; in assay [5] (first compound 0.003 µM) it was 0.247; in assay [5] (first compound 0.03 µM) it was 0.236; in assay [5] (first compound 0.09487 µM), 0.205. Moreover, in assay [5] (first compound 0.3 µM), the relative viability worked out at 0.175.
